In patent publication US9747412B2, “Method for identifying activation of transferases” (HVIVO SERVICES LIMITED, priority 2010, dated 2017):

Test system: epithelial cell line MCF10A
Assay: Global Kinase Activity Profiling (GKAP) of lysates of cells treated with EGF and kinase inhibitors
Assay type: cell-based, human
Settings: for Decrease in the number of EGF-dependent kinase activities detected: MCF10A cells pre-treated 1 h with inhibitor (5 μM LY294002 or 10 μM U0126) before 100 ng/ml EGF for 10 min

| Compound | Decrease in the number of EGF-dependent kinase activities detected | Number of kinase reactions that increased as a function of treatment (treatment with EGF (summary statement)) |
| --- | --- | --- |
| O=c1cc(N2CCOCC2)oc2c(-c3ccccc3)cccc12 [LY92004] | about 30% |  |
| N#CC(=C(/N)Sc1ccccc1N)/C(C#N)=C(\N)Sc1ccccc1N [U0126] | about 30% |  |
| EGF: recombinant human EGF (Peprotech AF-100-15), growth factor activating kinase pathways downstream of its receptor (NSDSECPLSHDGYCLHDGVCMYIEALDKYACNCVVGYIGERCQYRDLKWWELR; UniProt P01133 971-1023, looked up) |  | > 300 |
